The target of one experiment is T1, Leucine aminopeptidase (Plasmodium falciparum 3D7, UniProt Q8IL11).
T1 sequence (Q8IL11 whole entry): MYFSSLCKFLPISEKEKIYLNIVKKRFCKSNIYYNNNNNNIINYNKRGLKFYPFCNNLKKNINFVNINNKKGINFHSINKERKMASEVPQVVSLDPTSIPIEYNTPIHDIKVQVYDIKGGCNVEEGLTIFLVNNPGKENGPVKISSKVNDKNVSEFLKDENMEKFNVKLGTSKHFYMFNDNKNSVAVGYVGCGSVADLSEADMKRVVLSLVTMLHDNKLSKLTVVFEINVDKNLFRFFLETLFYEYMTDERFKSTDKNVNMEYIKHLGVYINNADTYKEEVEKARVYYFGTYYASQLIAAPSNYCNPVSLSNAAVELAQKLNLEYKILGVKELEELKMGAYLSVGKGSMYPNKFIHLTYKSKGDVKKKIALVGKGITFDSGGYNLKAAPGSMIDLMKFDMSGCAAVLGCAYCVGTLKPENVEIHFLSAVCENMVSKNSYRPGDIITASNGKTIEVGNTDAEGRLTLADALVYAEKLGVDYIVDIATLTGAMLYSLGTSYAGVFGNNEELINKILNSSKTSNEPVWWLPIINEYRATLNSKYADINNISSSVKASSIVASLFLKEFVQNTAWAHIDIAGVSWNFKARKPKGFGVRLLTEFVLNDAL
As to the kind of experiment: P. falciparum M17LAP inhibitors, primary screen, biochemical, fluorogenic H-Leu-NHMec substrate, 1536-well (AID 1619). The experiment is classed as functional.

A further experiment has as its target T2, Aminopeptidase N (Plasmodium falciparum FcB1/Columbia, UniProt O96935).
T2 sequence (O96935 whole entry): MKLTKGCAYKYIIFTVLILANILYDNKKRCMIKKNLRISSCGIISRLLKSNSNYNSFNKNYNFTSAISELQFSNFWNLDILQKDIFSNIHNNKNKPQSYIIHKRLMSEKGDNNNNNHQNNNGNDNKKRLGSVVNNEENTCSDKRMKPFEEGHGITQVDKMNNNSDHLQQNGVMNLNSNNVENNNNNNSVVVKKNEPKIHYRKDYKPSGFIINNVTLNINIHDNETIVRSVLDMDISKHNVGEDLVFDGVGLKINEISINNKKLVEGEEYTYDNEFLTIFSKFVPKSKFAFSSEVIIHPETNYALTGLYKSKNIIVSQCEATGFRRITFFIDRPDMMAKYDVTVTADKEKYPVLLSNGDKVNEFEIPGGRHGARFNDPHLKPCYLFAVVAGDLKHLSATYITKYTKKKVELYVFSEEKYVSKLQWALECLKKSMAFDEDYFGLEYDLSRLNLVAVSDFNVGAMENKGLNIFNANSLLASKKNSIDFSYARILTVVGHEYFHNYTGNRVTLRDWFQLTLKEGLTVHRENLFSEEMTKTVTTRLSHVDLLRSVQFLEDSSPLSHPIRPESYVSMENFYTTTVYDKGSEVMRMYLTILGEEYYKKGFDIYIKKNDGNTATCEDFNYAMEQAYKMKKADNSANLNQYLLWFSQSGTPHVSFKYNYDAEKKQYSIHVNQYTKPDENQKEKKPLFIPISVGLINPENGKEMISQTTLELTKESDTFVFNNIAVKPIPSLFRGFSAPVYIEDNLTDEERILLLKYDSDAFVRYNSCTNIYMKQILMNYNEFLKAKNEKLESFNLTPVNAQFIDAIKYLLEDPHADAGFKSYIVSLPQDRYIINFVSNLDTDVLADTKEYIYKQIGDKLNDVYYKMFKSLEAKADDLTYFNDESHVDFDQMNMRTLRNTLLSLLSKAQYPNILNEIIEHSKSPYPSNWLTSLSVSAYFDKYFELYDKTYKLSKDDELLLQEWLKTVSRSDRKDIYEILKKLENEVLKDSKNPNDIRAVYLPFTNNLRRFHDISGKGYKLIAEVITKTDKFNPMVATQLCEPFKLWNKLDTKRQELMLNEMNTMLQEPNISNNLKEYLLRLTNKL
Nature of the experiment: P. falciparum M1AAP inhibitors, biochemical, fluorogenic H-Leu-NHMec substrate, 1536-well (AID 1445). Further details: species or system Plasmodium falciparum 3D7, 3D7.

The target of experiment [1] is T3, Corticotropin-releasing factor receptor 2/Corticotropin-releasing factor-binding protein (Homo sapiens, UniProt P24387+Q13324).
T3 sequence (Q13324 whole entry): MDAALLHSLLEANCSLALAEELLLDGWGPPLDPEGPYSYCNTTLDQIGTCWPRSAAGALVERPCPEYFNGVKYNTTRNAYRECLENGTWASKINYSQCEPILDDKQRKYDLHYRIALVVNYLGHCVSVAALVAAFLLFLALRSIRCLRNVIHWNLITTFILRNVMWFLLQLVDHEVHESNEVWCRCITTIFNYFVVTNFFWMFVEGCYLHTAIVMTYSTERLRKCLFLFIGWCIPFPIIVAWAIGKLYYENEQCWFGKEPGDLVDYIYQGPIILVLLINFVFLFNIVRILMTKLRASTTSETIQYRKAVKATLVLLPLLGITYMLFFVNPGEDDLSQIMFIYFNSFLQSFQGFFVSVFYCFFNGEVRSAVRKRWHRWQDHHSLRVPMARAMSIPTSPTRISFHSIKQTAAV
T3 sequence (P24387 whole entry): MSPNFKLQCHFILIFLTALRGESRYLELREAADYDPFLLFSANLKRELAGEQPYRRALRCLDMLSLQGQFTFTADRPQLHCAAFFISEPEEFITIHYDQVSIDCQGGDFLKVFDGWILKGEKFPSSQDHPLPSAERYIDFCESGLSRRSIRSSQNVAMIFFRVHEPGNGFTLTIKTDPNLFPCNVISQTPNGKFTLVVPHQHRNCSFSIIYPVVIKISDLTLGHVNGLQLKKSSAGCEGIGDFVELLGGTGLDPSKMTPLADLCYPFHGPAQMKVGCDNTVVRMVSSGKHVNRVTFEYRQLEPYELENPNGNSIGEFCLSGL
As to the kind of experiment: Dose Response confirmation of uHTS hits for small molecule antagonists of the CRF-binding protein and CRF-R2 receptor complex. Format: functional. Particulars: read-out: IC50_Mean.

For experiment [2], the target named is T3, Corticotropin-releasing factor receptor 2/Corticotropin-releasing factor-binding protein. As to the kind of experiment: activators of CRF receptor 2 with binding protein – uHTS hits, confirmation (AID 602473). The experiment is classed as functional. As to conditions: read-out: EC50_Mean.
Experiment [3] is described as follows: CRF-BP/CRF-R2 complex antagonists, dose response, cell-based, uHTS hits, 384-well (AID 651639). Particulars: read-out: IC50_Mean. The experiment is classed as functional, Homo sapiens.
Experiment [4] concerns the target T4, Calpain-2 catalytic subunit (Sus scrofa, UniProt P43367).
T4 sequence (P43367 whole entry): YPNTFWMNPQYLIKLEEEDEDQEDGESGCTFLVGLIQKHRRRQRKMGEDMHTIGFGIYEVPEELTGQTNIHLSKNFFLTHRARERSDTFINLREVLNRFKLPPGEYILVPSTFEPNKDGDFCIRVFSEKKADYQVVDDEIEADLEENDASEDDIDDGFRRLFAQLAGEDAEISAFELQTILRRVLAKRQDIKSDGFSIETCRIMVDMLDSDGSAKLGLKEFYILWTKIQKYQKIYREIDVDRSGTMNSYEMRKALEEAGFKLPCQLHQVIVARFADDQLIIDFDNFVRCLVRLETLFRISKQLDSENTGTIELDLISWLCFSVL
Nature of the experiment: pig calpain II inhibitor potency, dose response, biochemical, fluorogenic peptide substrate (AID 1420). The experiment is classed as functional.

Experiment [5] has as its target T5, Long-chain-fatty-acid--AMP ligase FadD28 (Mycobacterium tuberculosis, UniProt P9WQ59).
T5 sequence (P9WQ59 whole entry): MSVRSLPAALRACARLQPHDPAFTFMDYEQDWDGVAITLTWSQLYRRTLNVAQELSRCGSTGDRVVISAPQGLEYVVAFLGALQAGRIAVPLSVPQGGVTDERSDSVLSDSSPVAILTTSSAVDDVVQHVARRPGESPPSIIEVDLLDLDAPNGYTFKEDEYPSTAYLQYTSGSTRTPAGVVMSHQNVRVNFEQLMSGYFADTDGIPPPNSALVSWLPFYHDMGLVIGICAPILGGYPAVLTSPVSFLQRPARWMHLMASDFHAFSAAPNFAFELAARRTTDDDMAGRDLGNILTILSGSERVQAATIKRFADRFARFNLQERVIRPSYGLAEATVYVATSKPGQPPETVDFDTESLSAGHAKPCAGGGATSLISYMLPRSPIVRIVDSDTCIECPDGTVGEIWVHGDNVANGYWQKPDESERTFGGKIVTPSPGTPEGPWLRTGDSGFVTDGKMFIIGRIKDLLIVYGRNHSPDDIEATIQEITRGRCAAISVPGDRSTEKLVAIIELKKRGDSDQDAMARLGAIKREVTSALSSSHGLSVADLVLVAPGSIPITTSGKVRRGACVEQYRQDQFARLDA
As to the kind of experiment: Fluorescence polarization aasay to screen for inhibitors that compete for the binding of FadD28 to a bisubstrate Measured in Biochemical System Using Plate Reader - 2147-01_Inhibitor_Dose_CherryPick_Activity. The experiment is classed as functional, Mycobacterium tuberculosis H37Rv. Background: Polarisation of emitted light reports the rotation of a fluorescent probe.

Experiment [6] addresses T6, Methionyl-tRNA synthetase, putative (Trypanosoma brucei brucei, UniProt Q38C91).
T6 sequence (Q38C91 whole entry): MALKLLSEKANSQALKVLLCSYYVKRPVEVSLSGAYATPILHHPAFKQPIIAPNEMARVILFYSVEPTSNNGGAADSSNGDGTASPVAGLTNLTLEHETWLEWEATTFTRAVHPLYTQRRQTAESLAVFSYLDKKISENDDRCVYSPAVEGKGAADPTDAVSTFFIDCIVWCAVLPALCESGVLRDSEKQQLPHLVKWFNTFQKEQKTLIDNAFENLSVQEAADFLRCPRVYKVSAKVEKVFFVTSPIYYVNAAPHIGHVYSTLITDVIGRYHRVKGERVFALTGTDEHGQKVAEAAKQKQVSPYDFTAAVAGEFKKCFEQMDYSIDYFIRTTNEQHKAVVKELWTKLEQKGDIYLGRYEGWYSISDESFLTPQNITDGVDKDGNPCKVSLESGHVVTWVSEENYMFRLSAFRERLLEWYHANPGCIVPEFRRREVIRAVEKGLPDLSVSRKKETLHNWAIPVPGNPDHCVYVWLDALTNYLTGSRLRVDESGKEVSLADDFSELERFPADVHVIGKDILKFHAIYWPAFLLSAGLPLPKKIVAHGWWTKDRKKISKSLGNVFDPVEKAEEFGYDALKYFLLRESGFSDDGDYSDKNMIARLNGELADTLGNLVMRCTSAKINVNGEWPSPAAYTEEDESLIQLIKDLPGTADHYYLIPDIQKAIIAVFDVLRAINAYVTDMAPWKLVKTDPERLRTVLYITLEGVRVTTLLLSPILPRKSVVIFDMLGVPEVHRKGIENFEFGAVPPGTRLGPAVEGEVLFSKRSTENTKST
Format: functional, Trypanosoma brucei brucei strain 927/4 GUTat10.1.

Experiment [7] deals with T6, Methionyl-tRNA synthetase, putative. The experiment is classed as functional, Trypanosoma brucei brucei strain 927/4 GUTat10.1. The source holds these as a separate data set.
The nature of experiment [8]: Counterscreen for inhibitors of Trypanosoma brucei methionyl tRNA synthetase (MetRS): Luminescence-based cell-based high throughput dose response assay to identify compounds that are cytotoxic to Jurkat human T lymphocyte cells. The experiment is classed as functional. On the technique in general: Counterscreens check selectivity or assay interference.
The target in experiment [9] is Nuclear receptor subfamily 5 group A member 2 (Homo sapiens, UniProt O00482). Format: functional, cell-based.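 Also: HEK293T cells transfected with LRH-1 and a StAR promoter luciferase reporter; potency for inhibitors that lower LRH-1 driven reporter light.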
A further experiment addresses Steroidogenic factor 1 (Homo sapiens, UniProt Q13285). Nature of the experiment: Counterscreen for inverse agonists of the liver receptor homolog-1 (LRH-1; NR5A2): Luminescence-based cell-based high throughput dose response assay to identify inverse agonists of the Steroidogenic Factor 1 Nuclear Receptor (SF1; NR5A1). The experiment is classed as functional.
Experiment [10] in a line: StAR promoter reporter inhibition counter-screen, dose response, counter-screen for LRH-1 inverse agonist project, cell-based, luminescence, luciferase reporter (AID 651969). Format: functional.

Calls of active or inactive are those of the source. Some results are limits rather than exact numbers.

Sequence of Steroidogenic factor 1 (Q13285 whole entry): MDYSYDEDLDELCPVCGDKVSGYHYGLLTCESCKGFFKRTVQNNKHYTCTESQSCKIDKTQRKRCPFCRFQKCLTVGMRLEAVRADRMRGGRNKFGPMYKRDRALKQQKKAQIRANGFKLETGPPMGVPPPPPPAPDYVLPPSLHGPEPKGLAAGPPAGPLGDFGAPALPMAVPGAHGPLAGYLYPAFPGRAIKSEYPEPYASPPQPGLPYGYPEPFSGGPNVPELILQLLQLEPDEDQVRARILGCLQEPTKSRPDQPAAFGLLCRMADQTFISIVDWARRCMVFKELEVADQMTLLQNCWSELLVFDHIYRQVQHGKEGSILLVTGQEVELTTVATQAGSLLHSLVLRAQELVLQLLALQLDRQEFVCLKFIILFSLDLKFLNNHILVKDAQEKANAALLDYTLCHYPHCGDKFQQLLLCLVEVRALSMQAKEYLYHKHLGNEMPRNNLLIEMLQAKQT
Sequence of Nuclear receptor subfamily 5 group A member 2 (O00482 whole entry): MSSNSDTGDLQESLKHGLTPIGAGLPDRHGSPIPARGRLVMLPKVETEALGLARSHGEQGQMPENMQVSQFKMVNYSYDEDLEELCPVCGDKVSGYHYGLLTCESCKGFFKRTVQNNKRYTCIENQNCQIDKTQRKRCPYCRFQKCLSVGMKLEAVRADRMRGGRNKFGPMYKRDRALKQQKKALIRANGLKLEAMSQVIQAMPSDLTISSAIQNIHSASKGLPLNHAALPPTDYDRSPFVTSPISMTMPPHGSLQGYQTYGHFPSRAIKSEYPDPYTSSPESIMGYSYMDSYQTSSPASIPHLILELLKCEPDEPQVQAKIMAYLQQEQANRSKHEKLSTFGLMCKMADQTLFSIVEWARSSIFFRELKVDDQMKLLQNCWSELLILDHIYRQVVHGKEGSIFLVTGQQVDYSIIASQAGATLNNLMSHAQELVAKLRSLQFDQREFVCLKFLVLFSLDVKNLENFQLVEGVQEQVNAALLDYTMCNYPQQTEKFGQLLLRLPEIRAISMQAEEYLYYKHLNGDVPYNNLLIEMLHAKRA

As for `COc1ccc(/C=C2\SC(NS(=O)(=O)c3cccs3)=NC2=O)cc1`, the IC50 at Leucine aminopeptidase was 31 µM (active); on Aminopeptidase N, 41.1 µM (active); in experiment [1] it was 36.5 µM (active); in [3], > 20 µM (inactive). The EC50 in experiment [2] is > 53 µM (inactive).
Consider `O=C(c1ccco1)N(Cc1cccc([N+](=O)[O-])c1)c1ccc(Br)cc1`, for which the figures for the IC50 in experiment [4], in [1] and in experiment [3] were 12 µM (not active), < 0.368 µM (active) and > 20 µM (inactive), respectively. Further, in experiment [2], the EC50 is > 53 µM (inactive).
As to `O=C(OCC(=O)c1c[nH]c2ccccc12)c1ccc(F)c(S(=O)(=O)N2CCOCC2)c1`, the concentration at half-maximal activity (AC50) (as a rule, the midpoint of the concentration-response curve, whichever way the signal moves) in experiment [5] is 60.2 µM (active).
Turning to `O=C(NCc1ccco1)c1cccc(Nc2nc3ccc(Br)cc3[nH]2)c1`, the IC50 in [4] was 11.9 µM (not active); in experiment [6], 22.3 µM (inactive); in experiment [7], 13.5 µM (inactive).
For `O=C(NCc1ccco1)c1cccc(Nc2nc3cc(Br)ccc3[nH]2)c1`, the IC50 in experiment [8] is 83.3 µM (inactive).
Regarding `Cc1ccccc1C(=O)NC1CCN(CC(=O)Nc2ccc(Br)cc2)CC1`, the IC50 in experiment [9] is 35.9 µM (inactive); at Steroidogenic factor 1 it was 3.32 µM (active); in experiment [10], 35.9 µM (inactive).
Consider `O=C(CN1C(=O)NC2(CCOc3ccccc32)C1=O)c1ccc(Cl)s1` (configuration not stated), for which the AC50 in experiment [5] is > 100 µM (inactive).
As for `O=C(NNC(=O)c1cc(-c2cccnc2)nc2ccccc12)Nc1ccc(Cl)cc1`, the IC50 in experiment [6] is 39.5 µM (inactive); in experiment [8], 63 µM (inactive); in [7] it was 25.8 µM (inactive).
Regarding `COc1ccc(CCNC(=O)CSc2ccc(NC(C)=O)cc2)cc1OC`, the IC50 was 17.4 µM (inactive) in experiment [9], 2.27 µM (active) at Steroidogenic factor 1 and 35.9 µM (inactive) in [10].
As for `CS(=O)(=O)c1ccc(-c2cc(NC=O)c3ncc(-c4ccc(F)cc4)n3c2)cc1`, the IC50 in experiment [9] is 4.22 µM (active); on Steroidogenic factor 1, 2.73 µM (active); in experiment [10], 12.4 µM (inactive).

These data come from ChEMBL document CHEMBL1201862, “PubChem BioAssay data set” (2004).
